Here are results for one compound from patent publication US20240148714A1, “Triple Negative Breast Cancer Treatment Method” (Exelixis, Inc., priority 2016, published 2024).

This test concerns metastatic TNBC. As to the kind of experiment: Phase II study of cabozantinib in metastatic TNBC: objective response (RECIST 1.1), clinical benefit, PFS. The format is in vivo, human. As to the method: Experimental design: In this single-arm, two-stage phase 2 study, patients with metastatic TNBC with measurable disease by RECIST and up to 3 lines of prior chemotherapy for metastatic disease received cabozantinib 60 mg daily on a 21-day cycle. Patients were restaged 6 weeks following treatment initiation and every 9 weeks thereafter. The primary endpoint was objective response rate (ORR). Predefined secondary endpoints included progression free survival (PFS) and toxicity. Here, we examined cellular biomarkers using flow cytometry in serial blood samples collected at days 0 (baseline/pre-treatment), 8, 22, 43, and 64 of cabozantinib treatment. Mixed effect models were used to evaluate the changes of biomarker levels over time from baseline to day 64. Wilcoxon signed rank test were used to evaluate whether the change of biomarker levels from baseline to day 8 were different by clinical benefit. Adjusted p-values controlling false discovery rate were used to adjust for multiple comparisons.
Study Design and Treatment: As indicated, this was a single-arm, two-stage phase II study assessing the efficacy of cabozantinib monotherapy in patients with mTNBC. Treatment consisted of oral dosing of cabozantinib at 60 mg daily over a 21-day cycle. Patients underwent radiographic restaging at 6 weeks and every 9 weeks thereafter. Patients with complete or partial RECIST responses continued to receive study treatment, whereas those with progressive disease were taken off study. Dose reductions for toxicity occurred if patients experienced grade 3 or 4 neutropenia or thrombocytopenia, or nonhematologic adverse events. From the starting dose of 60 mg daily, doses were reduced as needed to 40 and 20 mg daily. For the purposes of determining the effect of cabozantinib treatment on pain and analgesic medication use, pain was assessed by a participant-reported questionnaire, and daily analgesic medication usage was recorded. These were completed at baseline and during week 3, 6, and every 6 weeks thereafter until the date of the participant's last follow-up visit.
The primary endpoint was the activity of cabozantinib, as defined by objective response rate (ORR) in patients with mTNBC. Predefined secondary endpoints included progression-free survival (PFS), toxicity, and pain. Correlative studies included analysis of MET and phospho-MET expression in archival tumor tissue, and molecular and cellular biomarkers of cabozantinib. Cellular biomarkers were examined using flow cytometry in serial blood samples collected at days 0 (baseline/pre-treatment), 8, 22, 43, and 64 of cabozantinib treatment. Mixed effect models were used to evaluate the changes of biomarker levels over time from baseline to day 64. Wilcoxon signed rank test were used to evaluate whether the change of biomarker levels from baseline to day 8 were different by clinical benefit. Adjusted p-values controlling false discovery rate were used to adjust for multiple comparisons.
Statistical Analysis: This study used Simon optimal two-stage design to control type I error at 10% and have at least 90% power to detect the acceptable response rate. By study design, 13 participants were to be enrolled in the first stage. If there was at least 1 response, accrual was to continue to the second stage, where an additional 22 patients were to be enrolled. If there were at least 4 responses among the 35 total patients, the regimen was to be considered worthy of further study. With a true response rate of 5%, the chance that the regimen would be declared worthy of further study was 10%, and with a true response rate of 20%, the chance that the regimen would be declared worthy of further study was 90%.
Objective response was evaluated by using RECIST1.1. […] Objective response rate was reported with 95% confidence interval (CI) for the two stage designs. PFS and 95% CI were described using Kaplan-Meier methods. […]

Structures are written as SMILES. Several values for one entry are separate records, joined by “and”; a condition that tells them apart may be missing. Equal values may be shown once.

`COc1cc2nccc(Oc3ccc(NC(=O)C4(C(=O)Nc5ccc(F)cc5)CC4)cc3)c2cc1OC` [cabozantinib]: where the note is “60 mg daily, 35 patients”, the “clinical benefit rate (PR+SD) at 15 weeks” value is given as 34% and the “median PFS” value was 2.0 months. Also, the “objective response rate (ORR)” value (60 mg daily, 35 patients, as previously reported (ASCO 2015)) is recorded as 11%. Besides, the “objective response rate (ORR)” value (60 mg daily, 35 patients, confirmed PR, RECIST 1.1) is 9%. Also, for the setting “17 cycles and 8 cycles of protocol therapy”, the “time on treatment of individual patients with PR” value was 11.7 months and 6.5 months. For the same compound, for the setting “35 patients”, the “Best overall response: Not evaluated due to toxicity” value is listed as 1 (3) n (%), the “Best overall response: PD” value is listed as 11 (31) n (%), the “Best overall response: PR” value was 3 (9) n (%) and the “Best overall response: SD” value was 20 (57) n (%). Under “35 patients”, the “Best overall response: SD <15 weeks” value is reported as 11 (31) n (%) and the “Best overall response: SD ≥15 weeks” value was 9 (26) n (%). Besides, where the note is “high baseline sMET (>795 ng/mL median value)”, the “median PFS” value amounted to 3.3 months. In addition, the “patients off treatment due to progressive disease” value (human, in vivo) was found to be 91%. The “patients with clinically progressive disease before protocol specified tumor assessment” value (included in PD) was “^aIncluding 7 patients(20%) with clinically progressive disease before protocol specified tumor assessment”. Besides, the “median PFS” value (low baseline sMET (<795 ng/mL)) is reported as 1.3 months. Moreover, the “patients who achieved PR” value (of 35 patients) came out at 3 patients.
